Columns and labels:
large (Lg) crabgrass [1] = assay: Test A preemergence; type: in vivo, Digitaria sanguinalis; conditions: for Plant response rating, Crabgrass, Large: 125 g ai/ha, 0 to 100 scale where 0 is no effect and 100 is complete control; for Crabgrass, Large plant response rating: 500 g ai/ha, 0 to 100 scale, 0 no effect, 100 complete control, approx. 10 days
Procedure, shortened: (§1)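 Injury scores run from 0, no effect, to 100, complete control, judged by eye against untreated plants roughly 10 days after treatment. Chemicals carried a surfactant in a non-phytotoxic solvent and went onto loam–sand soil preemergence or onto one- to two-leaf seedlings postemergence.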

giant foxtail [2] = assay: Test A preemergence; type: in vivo, Setaria faberii; conditions: for Plant response rating, Foxtail, Giant: 125 g ai/ha, 0 to 100 scale where 0 is no effect and 100 is complete control; for Foxtail, Giant plant response rating: 500 g ai/ha, 0 to 100 scale, 0 no effect, 100 complete control, approx. 10 days
Procedure, shortened: as §1

pigweed [3] = assay: Test A preemergence; type: in vivo, Amaranthus retroflexus; conditions: for Plant response rating, Pigweed: 125 g ai/ha, 0 to 100 scale where 0 is no effect and 100 is complete control; for Pigweed plant response rating: 500 g ai/ha, 0 to 100 scale, 0 no effect, 100 complete control, approx. 10 days
Procedure, shortened: as §1

velvetleaf [4] = assay: Test A preemergence; type: in vivo, Abutilon theophrasti; conditions: for Plant response rating, Velvetleaf: 125 g ai/ha, 0 to 100 scale where 0 is no effect and 100 is complete control; for Velvetleaf plant response rating: 500 g ai/ha, 0 to 100 scale, 0 no effect, 100 complete control, approx. 10 days
Procedure, shortened: as §1

large (Lg) crabgrass [5] = assay: Test A postemergence; type: in vivo, Digitaria sanguinalis
Procedure, shortened: as §1

giant foxtail [6] = assay: Test A postemergence; type: in vivo, Setaria faberii
Procedure, shortened: as §1

pigweed [7] = assay: Test A postemergence; type: in vivo, Amaranthus retroflexus
Procedure, shortened: as §1

velvetleaf [8] = assay: Test A postemergence; type: in vivo, Abutilon theophrasti
Procedure, shortened: as §1

wheat, winter = assay: Test C postemergence; type: in vivo, Triticum aestivum; conditions: for Plant response rating (0 to 100), Wheat: postemergence; for Plant response rating, Wheat: Postemergence, scale 0 to 100 (0 no effect, 100 complete control)
Procedure, shortened: (§2)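 Greenhouse herbicide screen. Pre: seeded loam/sand, sprayed at planting. Post: 1–4 leaf plants (2–18 cm) in peat-based mix. Formulation: solvent mixture + surfactant, non-phytotoxic. Readout: visual % control vs untreated, 13–15 d; dash = not tested.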

giant foxtail [9] = assay: Test C postemergence; type: in vivo, Setaria faberii; conditions: for Plant response rating (0 to 100), Foxtail, Giant: postemergence; for Plant response rating, Foxtail, Giant: Postemergence, scale 0 to 100 (0 no effect, 100 complete control)
Procedure, shortened: as §2

ragweed = assay: Test C postemergence; type: in vivo, Ambrosia elatior; conditions: for Plant response rating (0 to 100), Ragweed: postemergence; for Plant response rating, Ragweed: Postemergence, scale 0 to 100 (0 no effect, 100 complete control)
Procedure, shortened: as §2

soybean = assay: Test C postemergence; type: in vivo, Glycine max; conditions: for Plant response rating (0 to 100), Soybean: postemergence; for Plant response rating, Soybean: Postemergence, scale 0 to 100 (0 no effect, 100 complete control)
Procedure, shortened: as §2

wild oat = assay: Test C postemergence; type: in vivo, Avena fatua; conditions: for Plant response rating (0 to 100), Oat, Wild: postemergence; for Plant response rating, Oat, Wild: Postemergence, scale 0 to 100 (0 no effect, 100 complete control)
Procedure, shortened: as §2

velvetleaf [10] = assay: Test C postemergence; type: in vivo, Abutilon theophrasti; conditions: for Plant response rating (0 to 100), Velvetleaf: postemergence; for Plant response rating, Velvetleaf: Postemergence, scale 0 to 100 (0 no effect, 100 complete control)
Procedure, shortened: as §2

chickweed = assay: Test C postemergence; type: in vivo, Stellaria media; conditions: for Plant response rating (0 to 100), Chickweed: postemergence; for Plant response rating, Chickweed: Postemergence, scale 0 to 100 (0 no effect, 100 complete control)
Procedure, shortened: as §2

[11] = 125 g ai/ha, 0 to 100 scale where 0 is no effect and 100 is complete control
[12] = 500 g ai/ha, 0 to 100 scale, 0 no effect, 100 complete control
[13] = 500 g ai/ha, 0 to 100 scale where 0 is no effect and 100 is complete control

SMILES: N#Cc1cccc(Oc2ncc(Br)cn2)c1-n1cc(Br)cn1 [Compound 57]
- Plant response rating, Crabgrass, Large (large (Lg) crabgrass [1]): 90
- Crabgrass, Large plant response rating (large (Lg) crabgrass [1]): 100
- Plant response rating, Foxtail, Giant (giant foxtail [2]): 80
- Foxtail, Giant plant response rating (giant foxtail [2]): 100
- Plant response rating, Pigweed (pigweed [3]): 100
- Pigweed plant response rating (pigweed [3]): 100
- Plant response rating, Velvetleaf (velvetleaf [4]): 40
- Velvetleaf plant response rating (velvetleaf [4]): 100
- Plant response rating, Crabgrass, Large (large (Lg) crabgrass [5]; [11]): 90
- Plant response rating, Crabgrass, Large (large (Lg) crabgrass [5]; [12]): 100
- Plant response rating, Foxtail, Giant (giant foxtail [6]; [11]): 80
- Plant response rating, Foxtail, Giant (giant foxtail [6]; [12]): 100
- Plant response rating, Pigweed (pigweed [7]; [11]): 100
- Plant response rating, Pigweed (pigweed [7]; [12]): 100
- Plant response rating, Velvetleaf (velvetleaf [8]; [11]): 100
- Plant response rating, Velvetleaf (velvetleaf [8]; [12]): 100
- Plant response rating (0 to 100), Wheat (wheat, winter; 125 g ai/ha): 10
- Plant response rating (0 to 100), Wheat (wheat, winter; 250 g ai/ha): 15
- Plant response rating, Wheat (wheat, winter; 31 g ai/ha, 13 to 15 days): 0
- Plant response rating, Wheat (wheat, winter; 62 g ai/ha): 5
- Plant response rating (0 to 100), Foxtail, Giant (giant foxtail [9]; 125 g ai/ha): 15
- Plant response rating (0 to 100), Foxtail, Giant (giant foxtail [9]; 250 g ai/ha): 30
- Plant response rating, Foxtail, Giant (giant foxtail [9]; 31 g ai/ha, 13 to 15 days): 10
- Plant response rating, Foxtail, Giant (giant foxtail [9]; 62 g ai/ha): 10
- Plant response rating (0 to 100), Ragweed (ragweed; 125 g ai/ha): 55
- Plant response rating (0 to 100), Ragweed (ragweed; 250 g ai/ha): 65
- Plant response rating, Ragweed (ragweed; 31 g ai/ha, 13 to 15 days): 35
- Plant response rating, Ragweed (ragweed; 62 g ai/ha): 40
- Plant response rating (0 to 100), Soybean (soybean; 125 g ai/ha): 95
- Plant response rating (0 to 100), Soybean (soybean; 250 g ai/ha): 100
- Plant response rating, Soybean (soybean; 31 g ai/ha, 13 to 15 days): 65
- Plant response rating, Soybean (soybean; 62 g ai/ha): 85
- Plant response rating (0 to 100), Oat, Wild (wild oat; 125 g ai/ha): 30
- Plant response rating (0 to 100), Oat, Wild (wild oat; 250 g ai/ha): 35
- Plant response rating, Oat, Wild (wild oat; 31 g ai/ha, 13 to 15 days): 10
- Plant response rating, Oat, Wild (wild oat; 62 g ai/ha): 15
- Plant response rating (0 to 100), Velvetleaf (velvetleaf [10]; 125 g ai/ha): 40
- Plant response rating (0 to 100), Velvetleaf (velvetleaf [10]; 250 g ai/ha): 60
- Plant response rating, Velvetleaf (velvetleaf [10]; 31 g ai/ha, 13 to 15 days): 25
- Plant response rating, Velvetleaf (velvetleaf [10]; 62 g ai/ha): 35
- Plant response rating (0 to 100), Chickweed (chickweed; 125 g ai/ha): 80
- Plant response rating (0 to 100), Chickweed (chickweed; 250 g ai/ha): 80
- Plant response rating, Chickweed (chickweed; 31 g ai/ha, 13 to 15 days): 50
- Plant response rating, Chickweed (chickweed; 62 g ai/ha): 50

SMILES: N#Cc1cccc(Oc2ncc(Cl)cn2)c1-n1cc(Cl)cn1 [Compound 72]
- Plant response rating, Crabgrass, Large (large (Lg) crabgrass [1]): 100
- Crabgrass, Large plant response rating (large (Lg) crabgrass [1]): 100
- Plant response rating, Foxtail, Giant (giant foxtail [2]): 100
- Foxtail, Giant plant response rating (giant foxtail [2]): 100
- Plant response rating, Pigweed (pigweed [3]): 100
- Pigweed plant response rating (pigweed [3]): 100
- Plant response rating, Velvetleaf (velvetleaf [4]): 90
- Velvetleaf plant response rating (velvetleaf [4]): 100
- Plant response rating, Crabgrass, Large (large (Lg) crabgrass [5]; [11]): 100
- Plant response rating, Crabgrass, Large (large (Lg) crabgrass [5]; [12]): 100
- Plant response rating, Foxtail, Giant (giant foxtail [6]; [11]): 90
- Plant response rating, Foxtail, Giant (giant foxtail [6]; [13]): 100
- Plant response rating, Pigweed (pigweed [7]; [11]): 100
- Plant response rating, Pigweed (pigweed [7]; [13]): 100
- Plant response rating, Velvetleaf (velvetleaf [8]; [11]): 100
- Plant response rating, Velvetleaf (velvetleaf [8]; [13]): 100
- Plant response rating (0 to 100), Wheat (wheat, winter; 125 g ai/ha): 0
- Plant response rating (0 to 100), Wheat (wheat, winter; 250 g ai/ha): 5
- Plant response rating, Wheat (wheat, winter; 31 g ai/ha, 13 to 15 days): 0
- Plant response rating, Wheat (wheat, winter; 62 g ai/ha): 0
- Plant response rating (0 to 100), Foxtail, Giant (giant foxtail [9]; 125 g ai/ha): 10
- Plant response rating (0 to 100), Foxtail, Giant (giant foxtail [9]; 250 g ai/ha): 65
- Plant response rating, Foxtail, Giant (giant foxtail [9]; 31 g ai/ha, 13 to 15 days): 10
- Plant response rating, Foxtail, Giant (giant foxtail [9]; 62 g ai/ha): 10
- Plant response rating (0 to 100), Ragweed (ragweed; 125 g ai/ha): 60
- Plant response rating (0 to 100), Ragweed (ragweed; 250 g ai/ha): 60
- Plant response rating, Ragweed (ragweed; 31 g ai/ha, 13 to 15 days): 40
- Plant response rating, Ragweed (ragweed; 62 g ai/ha): 40
- Plant response rating (0 to 100), Soybean (soybean; 125 g ai/ha): 90
- Plant response rating (0 to 100), Soybean (soybean; 250 g ai/ha): 95
- Plant response rating, Soybean (soybean; 62 g ai/ha): 80
- Plant response rating (0 to 100), Oat, Wild (wild oat; 125 g ai/ha): 30
- Plant response rating (0 to 100), Oat, Wild (wild oat; 250 g ai/ha): 35
- Plant response rating, Oat, Wild (wild oat; 31 g ai/ha, 13 to 15 days): 5
- Plant response rating, Oat, Wild (wild oat; 62 g ai/ha): 5
- Plant response rating (0 to 100), Velvetleaf (velvetleaf [10]; 125 g ai/ha): 55
- Plant response rating (0 to 100), Velvetleaf (velvetleaf [10]; 250 g ai/ha): 75
- Plant response rating, Velvetleaf (velvetleaf [10]; 31 g ai/ha, 13 to 15 days): 40
- Plant response rating, Velvetleaf (velvetleaf [10]; 62 g ai/ha): 40
- Plant response rating (0 to 100), Chickweed (chickweed; 125 g ai/ha): 80
- Plant response rating (0 to 100), Chickweed (chickweed; 250 g ai/ha): 80
- Plant response rating, Chickweed (chickweed; 31 g ai/ha, 13 to 15 days): 50
- Plant response rating, Chickweed (chickweed; 62 g ai/ha): 65

From patent publication US9695155B2, “Herbicidal substituted pyrimidinyloxy benzene compounds” (E. I. DU PONT DE NEMOURS AND COMPANY, priority 2013, dated 2017)
